“Also recorded” adds a separate entry of the source. Read-outs that look alike come from different tables or passages of the source.
Legend:
MDA-kb2 cells = settings: for Cytotoxic EC20 (μM) MDA-kb2: EC20 = concentration that produces a 20% effect
Method: (§1) MDA-kb2 cells are human breast cancer cells stably transfected with a firefly luciferase reporter gene that is driven by an androgen-response element–containing promoter ([Wilson et al. 2002]). Details of the modified assay were published previously ([Ermler et al. 2010]). Briefly, cells were seeded at a concentration of 1 × 10^5 cells/mL in phenol red–free Leibowitz-15 medium (Invitrogen Ltd., Paisley, UK) containing 10% (charcoal-stripped) fetal calf serum (Invitrogen Ltd.) in white luminometer plates and allowed to attach for 24 hr. Cells were then exposed to eight serial dilutions of selected pesticides with or without DHT (0.25 nM). After 24 hr, luciferase activity was determined with SteadyGlo assay reagent (Promega UK Ltd., Southampton, Hampshire, UK) and measured in a plate reader (FLUOstar Optima, BMG Labtech GmbH, Offenburg, Germany). […] All concentrations were tested in duplicate over two plates, and each pesticide was measured at least twice in separate experiments. For comparative purposes, luminescence was normalized to DHT alone at coexposure concentration (maximum response, 100%) and solvent-only (ethanol) controls (minimum response, 0%). […] Pesticides were initially tested over a concentration range of 0.64 nM–50 μM (5× dilutions) as a range-finding exercise. Subsequently, the concentration ranges were modified to reflect the potency and toxicity of each individual compound. […] Sixty percent of the pesticides were repeat tested using the same product but with new stock solutions and by a different experimenter.
(§2) To analyze antiandrogenic action, raw luminescence readings were normalized on a plate-by-plate basis to the means of the positive DHT controls (n = 8) and the solvent controls (n = 8) ([Ermler et al. 2010]). […] Specifically, a variety of nonlinear regression models were fitted independently to the same data set, and the best-fitting model was selected using a statistical goodness-of-fit criterion. […] Data considered to be statistically significant at p < 0.05 were analyzed using the best-fit approach as described above. All statistical analysis was performed using SAS statistical software (SAS Institute Inc., Cary, NC, USA). From the best-fitting model, we derived inhibitory concentrations for antiandrogenicity and effect concentrations for cytotoxicity.

yeast = experiment: YAS, cytotoxicity (turbidity at 620 nm); type: cell-based; settings: for Cytotoxic EC20 (μM) YAS: EC20 = concentration that produces a 20% effect, yeast turbidity
Method: The methods for the YAS have been described previously ([Sohoni and Sumpter 1998]). Briefly, stimulation of the transfected AR causes a color change in the media, which is measured by absorbance at 540 nm (Labsystems Multiskan Multisoft, Vienna, VA, USA). Plates were also measured at 620 nm to measure cell growth (turbidity) to check for any cytotoxic effects that may have occurred. Pesticides were coincubated with DHT (6.4 nM). […] Incubation time was 53 hr at 28°C. […] Pesticide serial dilutions were tested in duplicate over two plates and were tested in two separate experiments.

androgen receptor (AR) [1] = biological target: T1, androgen receptor (AR) (Homo sapiens, UniProt P10275, Q868H); experiment: cell-based; settings: for IC20: MDA-kb2, read-out: Antiandrogen IC20 (μM) MDA-kb2
T1 construct: MDA-kb2 cells are human breast cancer cells stably transfected with a firefly luciferase reporter gene; endogenous in cells; host or cells: MDA-kb2 (human breast cancer cells)
T1 sequence (P10275 1-920 Q868H): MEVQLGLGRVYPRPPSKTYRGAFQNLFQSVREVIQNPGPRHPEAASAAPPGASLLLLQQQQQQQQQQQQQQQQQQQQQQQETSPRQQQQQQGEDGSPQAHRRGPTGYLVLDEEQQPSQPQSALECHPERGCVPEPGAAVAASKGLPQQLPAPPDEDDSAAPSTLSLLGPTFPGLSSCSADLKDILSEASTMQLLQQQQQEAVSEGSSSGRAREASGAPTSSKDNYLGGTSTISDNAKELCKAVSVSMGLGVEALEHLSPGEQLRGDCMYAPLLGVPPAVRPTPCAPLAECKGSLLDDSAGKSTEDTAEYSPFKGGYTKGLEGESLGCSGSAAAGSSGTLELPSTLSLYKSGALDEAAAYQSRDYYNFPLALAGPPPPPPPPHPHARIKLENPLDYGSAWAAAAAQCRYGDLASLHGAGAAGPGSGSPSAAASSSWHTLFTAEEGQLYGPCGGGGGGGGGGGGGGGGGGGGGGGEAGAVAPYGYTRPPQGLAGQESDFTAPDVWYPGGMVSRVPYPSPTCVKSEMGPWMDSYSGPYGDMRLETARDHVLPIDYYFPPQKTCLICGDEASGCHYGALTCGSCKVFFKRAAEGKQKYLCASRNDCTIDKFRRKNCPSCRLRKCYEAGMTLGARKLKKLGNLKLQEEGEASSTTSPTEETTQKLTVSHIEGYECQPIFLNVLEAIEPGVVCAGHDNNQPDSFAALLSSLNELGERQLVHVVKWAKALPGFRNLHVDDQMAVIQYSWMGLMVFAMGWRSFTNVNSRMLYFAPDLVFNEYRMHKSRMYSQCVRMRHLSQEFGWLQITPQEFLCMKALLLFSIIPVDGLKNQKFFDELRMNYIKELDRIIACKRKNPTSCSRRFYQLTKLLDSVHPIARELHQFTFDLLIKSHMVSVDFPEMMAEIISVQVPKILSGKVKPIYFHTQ
Method: as §1, §2

androgen receptor (AR) [2] = biological target: T1, androgen receptor (AR); type: cell-based
Method: as §1, §2

[3] = androgenic in the absence of DHT, Neg = no response was observed
[4] = total exposure score / IC20 (MDA-kb2), recalculated using experimental data

Cc1c(COC(=O)[C@@H]2[C@H](/C=C(\Cl)C(F)(F)F)C2(C)C)cccc1-c1ccccc1 (racemic) [Bifenthrin]
Cytotoxicity in the MDA-kb2 assay (in words) (MDA-kb2 cells): cytotoxic | Cytotoxic EC20 (μM) MDA-kb2 (MDA-kb2 cells): 22.2 µM | Cytotoxic EC20 (μM) YAS (yeast): > 200 µM

COP(=S)(OC)SCn1nnc2ccccc2c1=O [Azinphos-methyl]
Antiandrogenic activity in the MDA-kb2 assay (in words) (androgen receptor (AR) [1]; MDA-kb2 / 'our assay'): antiandrogenic; also recorded: in vitro AR antagonists | Cytotoxic EC20 (μM) MDA-kb2 (MDA-kb2 cells): 33.9 µM | Cytotoxic EC20 (μM) YAS (yeast): > 150 µM | Androgen EC20 (μM) MDA-kb2 (androgen receptor (AR) [2]; [3]): Neg

CO/C=C(/C(=O)OC)c1ccccc1Oc1cc(Oc2ccccc2C#N)ncn1 [Azoxystrobin]
Antiandrogen IC20 (μM) MDA-kb2 (androgen receptor (AR) [1]): Neg | Cytotoxic EC20 (μM) MDA-kb2 (MDA-kb2 cells): 2.9 µM | Androgen EC20 (μM) MDA-kb2 (androgen receptor (AR) [2]; [3]): Neg

CC(C)OC(=O)C(O)(c1ccc(Br)cc1)c1ccc(Br)cc1 [Bromopropylate]
IC20 (androgen receptor (AR) [1]): 0.54 µM | Antiandrogenic activity in the MDA-kb2 assay (in words) (androgen receptor (AR) [1]; MDA-kb2 / 'our assay'): in vitro AR antagonists | ERR (environmental relevance ratio) (androgen receptor (AR) [1]; [4]): 24.1 | Cytotoxic EC20 (μM) MDA-kb2 (MDA-kb2 cells): 27.2 µM | Androgen EC20 (μM) MDA-kb2 (androgen receptor (AR) [2]; [3]): Neg

CC(C)OC(=O)Nc1cccc(Cl)c1 [Chlorpropham]
Cytotoxic EC20 (μM) MDA-kb2 (MDA-kb2 cells): > 50 µM | Cytotoxic EC20 (μM) YAS (yeast): > 40 µM

Cc1cc(C2CC2)nc(Nc2ccccc2)n1 [Cyprodinil]
Cytotoxic EC20 (μM) MDA-kb2 (MDA-kb2 cells): > 50 µM

OC(c1ccc(Cl)cc1)(c1ccc(Cl)cc1)C(Cl)(Cl)Cl [Dicofol]
Cytotoxic EC20 (μM) MDA-kb2 (MDA-kb2 cells): 29.0 µM

CC1COC(Cn2cncn2)(c2ccc(Oc3ccc(Cl)cc3)cc2Cl)O1 (stereo not shown) [Difenoconazole]
Cytotoxic EC20 (μM) MDA-kb2 (MDA-kb2 cells): 2.91 µM | Cytotoxic EC20 (μM) YAS (yeast): 0.109 µM | Cytotoxicity in the YAS assay (in words) (yeast): cytotoxic

O=S1OCC2C(CO1)C1(Cl)C(Cl)=C(Cl)C2(Cl)C1(Cl)Cl (stereo not shown) [Endosulfan]
Antiandrogenic activity in the MDA-kb2 assay (in words) (androgen receptor (AR) [1]): in vitro AR antagonists | ERR (environmental relevance ratio) (androgen receptor (AR) [1]): 3.1 | IC20 (androgen receptor (AR) [1]): 6.05 µM | Cytotoxic EC20 (μM) MDA-kb2 (MDA-kb2 cells): 33.8 µM | Androgen EC20 (μM) MDA-kb2 (androgen receptor (AR) [2]): Neg

COP(=S)(OC)Oc1ccc([N+](=O)[O-])c(C)c1 [Fenitrothion]
Cytotoxic EC20 (μM) MDA-kb2 (MDA-kb2 cells): > 50 µM

COC(=O)N(C(=O)N1CO[C@@]2(C(=O)OC)Cc3cc(Cl)ccc3C2=N1)c1ccc(OC(F)(F)F)cc1 [Indoxacarb]
Antiandrogen IC20 (μM) MDA-kb2 (androgen receptor (AR) [1]): Neg | Cytotoxic EC20 (μM) MDA-kb2 (MDA-kb2 cells): 11.3 µM | Androgen EC20 (μM) MDA-kb2 (androgen receptor (AR) [2]; [3]): Neg

C#CCOc1ccc(CCNC(=O)C(OCC#C)c2ccc(Cl)cc2)cc1OC (stereo not shown) [Mandipropamid]
Antiandrogen IC20 (μM) MDA-kb2 (androgen receptor (AR) [1]): Neg | Cytotoxic EC20 (μM) MDA-kb2 (MDA-kb2 cells): 8.92 µM | Androgen EC20 (μM) MDA-kb2 (androgen receptor (AR) [2]; [3]): Neg

CNC(=O)Oc1cc(C)c(SC)c(C)c1 [Methiocarb]
IC20 (androgen receptor (AR) [1]): 6.82 µM | ERR (environmental relevance ratio) (androgen receptor (AR) [1]; [4]): 2.5 | Cytotoxic EC20 (μM) MDA-kb2 (MDA-kb2 cells): > 46 µM | Androgen EC20 (μM) MDA-kb2 (androgen receptor (AR) [2]; [3]): Neg

O=C(NC(=O)c1c(F)cccc1F)Nc1ccc(OC(F)(F)C(F)OC(F)(F)F)c(Cl)c1 (stereo not shown) [Novaluron]
Cytotoxic EC20 (μM) MDA-kb2 (MDA-kb2 cells): > 50 µM

Oc1ccccc1-c1ccccc1 [O-Phenylphenol]
Cytotoxic EC20 (μM) MDA-kb2 (MDA-kb2 cells): > 50 µM

CCCSP(=O)(OCC)Oc1ccc(Br)cc1Cl (stereo not shown) [Profenofos]
Cytotoxic EC20 (μM) MDA-kb2 (MDA-kb2 cells): 8.61 µM

C#CCOS(=O)OC1CCCCC1Oc1ccc(C(C)(C)C)cc1 (stereo not shown) [Propargite]
Cytotoxic EC20 (μM) MDA-kb2 (MDA-kb2 cells): 0.487 µM

COC(=O)N(OC)c1ccccc1COc1ccn(-c2ccc(Cl)cc2)n1 [Pyraclostrobin]
Cytotoxic EC20 (μM) MDA-kb2 (MDA-kb2 cells): 0.089 µM

Cc1cc(C)nc(Nc2ccccc2)n1 [Pyrimethanil]
Cytotoxic EC20 (μM) MDA-kb2 (MDA-kb2 cells): > 125 µM | Cytotoxic EC20 (μM) YAS (yeast): 167 µM | Cytotoxicity in the YAS assay (in words) (yeast): cytotoxic

Fc1ccc(Oc2ccnc3cc(Cl)cc(Cl)c23)cc1 [Quinoxyfen]
Cytotoxic EC20 (μM) MDA-kb2 (MDA-kb2 cells): 10.1 µM | Cytotoxic EC20 (μM) YAS (yeast): > 75 µM

CCOC(=O)OC1=C(c2cc(C)ccc2C)C(=O)N[C@]12CC[C@@H](OC)CC2 [Spirotetramat]
Cytotoxic EC20 (μM) MDA-kb2 (MDA-kb2 cells): > 50 µM

CCCN(CC)CC1COC2(CCC(C(C)(C)C)CC2)O1 (stereo not shown) [Spiroxamine]
Cytotoxic EC20 (μM) MDA-kb2 (MDA-kb2 cells): 9.29 µM

C=CC1(C)OC(=O)N(c2cc(Cl)cc(Cl)c2)C1=O (stereo not shown) [Vinclozolin]
Cytotoxic EC20 (μM) MDA-kb2 (MDA-kb2 cells): > 50 µM

CC(C)C(=O)Nc1ccc([N+](=O)[O-])c(C(F)(F)F)c1 [flutamide, reference compound]
Cytotoxicity in the MDA-kb2 assay (in words) (MDA-kb2 cells): overlap of toxic effects on the cells with antiandrogenic activity

ClC(Cl)=C(c1ccc(Cl)cc1)c1ccc(Cl)cc1 [p,p′-DDE, p,p′-1,1-bis-(4-chlorophenyl)-2,2-dichloroethene]
Cytotoxic EC20 (μM) MDA-kb2 (MDA-kb2 cells): > 50 µM

CC1(C)C(/C=C(\Cl)C(F)(F)F)C1C(=O)OC(C#N)c1cccc(Oc2ccccc2)c1 (stereo not shown) [λ-Cyhalothrin]
Cytotoxic EC20 (μM) MDA-kb2 (MDA-kb2 cells): 51.4 µM | Cytotoxic EC20 (μM) YAS (yeast): > 200 µM

Spinosad
Antiandrogen IC20 (μM) MDA-kb2 (androgen receptor (AR) [1]): Neg | Cytotoxic EC20 (μM) MDA-kb2 (MDA-kb2 cells): 13.1 µM | Androgen EC20 (μM) MDA-kb2 (androgen receptor (AR) [2]; [3]): Neg
